Laboratory results from patent US8344100B2, “Poly-epitope peptide derived from thymidylate synthase having immunological and anti-tumour activity” (Universitá degli Studi di Siena, priority 2005, dated 2013).
Where a SMILES comes first, the peptide text is derived from it.

Experiments:
[1] = test system: HT-29 cells transfected with the HLA-A(*)02.01 gene; assay: 51Cr release cytotoxicity test of CTL lines against colon carcinoma cells HT-29; assay type: cell-based; conditions: HT-29 pretreated with 5-FU
Protocol: (§1) The lymphocyte lines generated in vitro using TS/PP were capable of destroying the target cells derived from colon carcinoma (the HT-29 and SW-1463 cell lines).
HLA-A (*)02.01 expression was induced by gene transfection on the membrane of HT29 target cells before every experiment. Specific lysis was calculated as follows: […]

SW-1463 cells = assay: 51Cr release cytotoxicity test of CTL lines against colon carcinoma cells SW-1463; assay type: cell-based; conditions: SW-1463 pretreated with 5-FU
Excerpt: as §1

[2] = Anatomo-pathological study of organs (autoimmunity, toxicity); assay type: in vivo, transgenic (HHD) mice; conditions: lung, liver, spleen, kidney, brain, skin and mucosa
MDA-MB-231 cells = conditions: MDA-MB-231 pretreated with 5-FU
Protocol: Cytotoxic assays. The release of radioactive chrome (^51Cr) was assayed as described in previous studies [18].
Spontaneous release was determined in the plates to which 100 μl of medium was added without effector cells. The total radioactivity released was determined after treating the target with Triton x-100. HLA was blocked by using an anti-HLA-A2 antibody (A2.69, One Lambda, Inc., Chanoga Park, Calif., USA) or the anti-class I (pan A,B,C)-HLA antibody W6.32, which were incubated with the target cells for one hour before the cytotoxicity assay. The negative control was the UPC-10 monoclonal antibody.
The cytotoxicity tests carried out using the technique of ^51Cr release were performed using target cells coming from cell lines derived from breast carcinoma (MDA-MB-231) and colon carcinoma (HT-29 and SW-1463), before and after treatment with sub-lethal doses of 5-FU.

[3] = test system: breast and colon carcinoma tumour cells; assay: Viability of target cells exposed to 5-FU (hemocytometric count); assay type: cell-based, human; conditions: sub-lethal doses for 48 hours
Excerpt: The viability of the target cells exposed to 5-FU was examined by means of a hemocytometric count after staining and was never less than 90%, thus excluding the possibility that the immunosensitisation was due to the large number of dead or already degenerating cells in the cytotoxicity assay.

[4] = test system: MDA-MB-231, HT-29 and SW-1463 target cells; assay: Cytofluorimetric and immunoblotting analyses of target cells treated with 5-FU; assay type: cell-based, human; conditions: data not shown
[5] = test system: murine TS in EL-4/HHD cells; assay: Cytofluorimetric test of TS expression in EL-4/HHD cells; assay type: cell-based, mouse; conditions: sub-lethal dose, constitutive expression 35%
[6] = test system: EL-4/HHD autologous leukemic cells; assay: Tumour growth in HHD mice inoculated with EL-4/HHD cells; assay type: in vivo, transgenic (HHD) mice; conditions: with weekly intraperitoneal 5-FU
Protocol: The results are given as the mean value ±SD of the maximum diameter.
In this study, six groups of five mice received different immunological treatments with or without chemotherapeutic treatment with 5-FU. The mice in groups A and B were administered a control peptide derived from the mumps virus (100 μg per mouse); the mice in groups C and D were administered a cocktail of the TS-1, TS-2 and TS-3 peptides (100 μg per mouse); and the mice in groups E and F were administered the TS/PP peptide (100 μg per mouse).
The mice received the first peptide administration subcutaneously at time 0, with recalls in the third and sixth week. Two weeks after the last administration, all animals were subcutaneously inoculated with 2×10^6 EL-4/HHD cells.
In order to evaluate the possible interaction between TS and the 5-FU treatment for vaccination purposes, seven days after the tumour cells inoculation, the mice in groups B, D and F underwent a chemotherapeutic treatment based on weekly intraperitoneal administration of 5-FU ([…]).

[7] = target: T1, HLA-A(*)02.01 molecule on cells (human); assay: T2 test (flow cytometry, HLA-A*02:01 on T2 cells)
T1 construct: whole, on cells; Class I MHC molecule on cells; also called HLA-A2; HLA-A2.1

[8] = target: T1, HLA-A(*)02.01 molecule on cells; assay: T2 test (flow cytometry of HLA expression on T2 cells after exposure to the peptide)

CC[C@H](C)[C@H](NC(=O)[C@H](CCSC)NC(=O)[C@@H](N)Cc1ccc(O)cc1)C(=O)N[C@@H](C)C(=O)N[C@@H](Cc1c[nH]cn1)C(=O)N[C@H](C(=O)N[C@H](C(=O)NCC(=O)N[C@@H](CC(C)C)C(=O)N[C@@H](Cc1ccccc1)C(=O)N[C@@H](CC(C)C)C(=O)N[C@@H](CC(=O)O)C(=O)N[C@@H](CO)C(=O)N[C@@H](CC(C)C)C(=O)NCC(=O)N[C@@H](Cc1ccccc1)C(=O)N[C@@H](CO)C(=O)N[C@H](C(=O)N[C@H](C(=O)N[C@@H](CC(C)C)C(=O)NCC(=O)N[C@@H](CC(=O)O)C(=O)N[C@@H](C)C(=O)N[C@@H](Cc1c[nH]cn1)C(=O)N[C@H](C(=O)N[C@@H](Cc1ccc(O)cc1)C(=O)N[C@@H](CC(C)C)C(=O)O)[C@@H](C)CC)[C@@H](C)O)[C@@H](C)O)[C@@H](C)O)[C@@H](C)CC [TS/PP] (H-YMIAHITGLFLDSLGFSTTLGDAHIYL-OH; N-terminus and C-terminus assumed)
Lysis after target cell pre-treatment with sub-lethal 5-FU doses [1]: significantly increased | Lysis after target cell pre-treatment with sub-lethal 5-FU doses (SW-1463 cells): significantly increased | Degeneration, autoimmunity or toxicity [2]: do not indicate any autoimmunity or toxicity phenomena | Lytic activity after target cell pre-treatment with sub-lethal 5-FU doses (MDA-MB-231 cells): significantly increased

O=c1[nH]cc(F)c(=O)[nH]1 [5-FU, 5-fluorouracil]
Viability of the target cells [3]: ≥ 90% | TS expression ([4]; MDA-MB-231, HT-29, SW-1463): significant increase | Class I HLA expression [4]: did not induce any change | Expression of murine TS [5]: 55-70% | Neoplastic growth [6]: did not change neoplastic growth in any way

TLGDAHIYL (Synthetic 9-mer) [TS-1 peptide (TLGDAHIYL)]
binding result [7]: binds

YMIAHITGL (Synthetic 9-mer) [TS-2 peptide (YMIAHITGL)]
binding result [7]: binds

FLDSLGFST (Synthetic 9-mer) [TS-3 peptide (FLDSLGFST)]
binding result [7]: binds

YMIAHITGLFLDSLGFSTTLGDAHIYL (also called 28-amer peptide) [TS/PP poly-epitope peptide (YMIAHITGLFLDSLGFSTTLGDAHIYL)]
binding result [8]: no binding
